The results in this text go back to paper PMC4270767 (PLoS ONE, 2014).

Where “and” joins values, the source holds several entries; their conditions need not be identical. Identical values can stand only once. Counter-ions that a name gives are not always drawn. Like-named read-outs stand apart in the source and are kept apart here.

Test [1] has as its target T1, MtSerB2 (Mycobacterium tuberculosis, UniProt O53289). Kind of test: Inhibition of MtSerB2 hydrolysis of L-phosphoserine (malachite green). It is filed as biochemical, M. tuberculosis.
Test [2] addresses T1, MtSerB2. Put plainly: Effects of added amino acids on MtSerB2 phosphatase activity. Type of test: biochemical, M. tuberculosis. The note with it: for % activation or IC50: amino acids without effect.
For test [3], the target named is T1, MtSerB2. The note with it: Superdex S200, samples pre-equilibrated 1 h.
Test [4] addresses PSP domain of MtSerB2 (PSPD) (Mycobacterium tuberculosis, UniProt O53289). Put plainly: biochemical. Also noted: species or system M. tuberculosis.
The target of test [5] is T1, MtSerB2. It is filed as biochemical, M. tuberculosis. The note with it: for effect of divalent cation on MtSerB2 activity: relative to Mg^2+.

T1 sequence (O53289 whole entry): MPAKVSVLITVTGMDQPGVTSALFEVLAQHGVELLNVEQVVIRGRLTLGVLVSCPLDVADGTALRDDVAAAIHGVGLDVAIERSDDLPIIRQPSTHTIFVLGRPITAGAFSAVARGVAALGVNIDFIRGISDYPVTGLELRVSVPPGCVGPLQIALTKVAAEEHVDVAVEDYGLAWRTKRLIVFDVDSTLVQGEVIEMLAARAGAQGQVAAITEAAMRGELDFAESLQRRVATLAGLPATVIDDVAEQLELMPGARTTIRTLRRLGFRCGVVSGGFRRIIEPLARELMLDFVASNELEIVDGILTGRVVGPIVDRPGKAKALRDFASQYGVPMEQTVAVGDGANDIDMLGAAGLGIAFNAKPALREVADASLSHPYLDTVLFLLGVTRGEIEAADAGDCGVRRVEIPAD
Chain of PSP domain of MtSerB2 (PSPD) (O53289 165-409 limits assumed): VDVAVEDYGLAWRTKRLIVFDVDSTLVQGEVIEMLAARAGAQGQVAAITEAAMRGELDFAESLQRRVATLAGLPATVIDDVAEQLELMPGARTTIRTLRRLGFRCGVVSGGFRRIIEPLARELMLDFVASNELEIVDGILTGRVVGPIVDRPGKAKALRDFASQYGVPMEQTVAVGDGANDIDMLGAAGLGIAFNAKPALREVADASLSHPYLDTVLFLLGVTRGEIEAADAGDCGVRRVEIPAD

Consider `N[C@@H](CO)C(=O)O` [L-serine], for which, at MtSerB2 [1], inhibition was half-maximal at 0.78 ± 0.08 µM (IC50) and the “Imax (%) SerB2” value came to 65%. For the same compound, the Activation factor result at MtSerB2 [2] is listed as “Inhibition”. Moreover, on MtSerB2 [3], the “molar ratio of L-serine and MtSerB2 at shift of dimer to tetramer (higher order oligomer)” value was roughly 0.8. In test [4], the “Imax (%) PSPD” value came out at 70%. For the same compound, the IC50 (as a rule, the concentration at which inhibition is half-maximal) in test [4] (IC50 (µM) PSPD) was determined as 824 ± 39 µM.

Regarding `N[C@@H](CP(=O)(O)O)C(=O)O` [L- AP3, L-2-amino-3-phosphonopropionate], the “Imax (%) SerB2” value at MtSerB2 [1] was 23%. For the same compound, the “Imax (%) PSPD” value in test [4] is 21%.

With `O=C(O)[C@@H]1CCCN1` [Pro], on MtSerB2 [2], the Activation factor entry is listed as “Inhibition” and the IC50 is greater than 5000 µM.

Consider `C=C1[C@@H](O)[C@@H]2O[C@]3(CC[C@H](/C=C/[C@@H](C)[C@@H]4CC(C)=C[C@@]5(O[C@H](C[C@@](C)(O)C(=O)O)CC[C@H]5O)O4)O3)CC[C@H]2O[C@@H]1[C@@H](O)C[C@H](C)[C@H]1O[C@@]2(CCCCO2)CC[C@H]1C` [Okadaic acid], for which, on MtSerB2 [1], the “Imax (%) SerB2” value came to 14% and the “Inhibition of phosphatase activity” value is reported as “not able to inhibit the phosphatase activity”. The “Imax (%) PSPD” value in test [4] is listed as 22%.

For the compound `[Co+2]` [Co^2+], on MtSerB2 [5], the “effect of divalent cation on MtSerB2 activity” value (shortened to “effect of divalent cation”) is listed as “deactivates”.

For `C[C@@H](O)[C@H](N)C(=O)O` [Thr], at MtSerB2 [2], the Activation factor result was “Inhibition” and the IC50 came out at 3460 ± 206 µM.

Turning to `CSCC[C@H](N)C(=O)O` [Met], at MtSerB2 [2], the Activation factor entry is reported as “Non modulator” and the “% activation or IC50” value was “No Change”.

As to `[F-].[Na+]` [NaF, Sodium fluoride], the “Imax (%) SerB2” value at MtSerB2 [1] was determined as 55%. For the same compound, the “Inhibition of phosphatase activity” value on MtSerB2 [1] was “decrease of enzyme activity”. The results for the IC50 (at MtSerB2 [1] (read-out: IC50); at MtSerB2 [1] (read-out: IC50 (µM) SerB2); in test [4] (read-out: IC50 (µM) PSPD)) were roughly 3000 µM, 3110 ± 155 µM and 2780 ± 216 µM, respectively. In addition, the “Imax (%) PSPD” value in test [4] is 72%.

For `N[C@@H](Cc1ccc(O)cc1)C(=O)O` [Tyr], the Activation factor result at MtSerB2 [2] is recorded as “Activation”.

As to `NC(=O)CC[C@H](N)C(=O)O` [Gln], on MtSerB2 [2], the Activation factor entry was “Inhibition” and the IC50 turned out to be 432 ± 13 µM.

On to `[Ni+2]` [Ni^2+], for which the “effect of divalent cation” value at MtSerB2 [5] is listed as “deactivates”.

As to `C[N+](C)(C)CCOP(=O)(O)O` [Phosphorylcholine], on MtSerB2 [1], the “Imax (%) SerB2” value stood at 10%. Besides, the “Imax (%) PSPD” value in test [4] amounted to 14%.

Consider `[Zn+2]` [Zn^2+], for which, at MtSerB2 [5], the “concentration level of inhibition” value is on record as “inhibits the activity at nanomolar levels” and the “effect of divalent cation” value is on record as “deactivates”.

Regarding `[Mn+2]` [Mn^2+], the “effect of divalent cation” value at MtSerB2 [5] is on record as “deactivates”.

Take `N[C@@H](Cc1c[nH]c2ccccc12)C(=O)O` [Trp]: on MtSerB2 [2], the Activation factor result was “Inhibition” and the IC50 turned out to be 322 ± 23 µM.

For the compound `[Ca+2].[Cl-].[Cl-]` [Ca^2+], on MtSerB2 [5], the “effect of divalent cation” value is “deactivates”.

As to `N[C@@H](CS)C(=O)O` [Cys], at MtSerB2 [2], the Activation factor entry is reported as “Non Modulator” and the “% activation or IC50” value is given as “No Change”.

As for `CC[C@H](C)[C@H](N)C(=O)O` [Ile], on MtSerB2 [2], the Activation factor entry is listed as “Non modulator” and the “% activation or IC50” value is listed as “No Change”.

For `C[C@H](N)C(=O)O` [Ala], at MtSerB2 [2], the Activation factor entry is given as “Inhibition” and inhibition was half-maximal at 3830 ± 234 µM (IC50).

In the case of `N[C@@H](CC(=O)O)C(=O)O` [Asp], on MtSerB2 [2], the Activation factor entry is given as “Inhibitor” and the IC50 was 1620 ± 84 µM.

On to `NC(CP(=O)(O)O)C(=O)O` (racemic) [D,L- AP3, DL-2-Amino-3-Phosphonopropionic Acid], for which the “Imax (%) SerB2” value on MtSerB2 [1] is given as 22%. In test [4], the “Imax (%) PSPD” value is 19%.

With `C[N+](C)(C)CCOP(=O)([O-])OCC(O)CO` (stereo not drawn) [α-GPC, α-Glycerophosphorylcholine], on MtSerB2 [1], the “Imax (%) SerB2” value turned out to be 35%. Also, in test [4], the “Imax (%) PSPD” value is listed as 31%.

For the compound `CC(C)[C@H](N)C(=O)O` [Val], at MtSerB2 [2], the Activation factor entry is reported as “Inhibition” and the IC50 was 3660 ± 212 µM.

Regarding `N[C@@H](Cc1ccccc1)C(=O)O` [Phe], the Activation factor entry at MtSerB2 [2] is on record as “Activation”.

Take `N[C@@H](Cc1c[nH]cn1)C(=O)O` [His]: on MtSerB2 [2], the Activation factor entry is given as “Inhibition” and the IC50 is 4860 ± 218 µM.

For the compound `CC(C)C[C@H](N)C(=O)O` [Leu], on MtSerB2 [2], the Activation factor result was “Non modulator” and the “% activation or IC50” value is “No Change”.

With `NC(=O)C[C@H](N)C(=O)O` [Asn], on MtSerB2 [2], the Activation factor entry is “Non modulator” and the “% activation or IC50” value is recorded as “No Change”.

In the case of `N=C(N)NCCC[C@H](N)C(=O)O` [Arg], at MtSerB2 [2], the Activation factor result is “Inhibition” and half-maximal inhibition (IC50) required 632 ± 14 µM.

Regarding `NCC(=O)O` [Gly], at MtSerB2 [2], the Activation factor result was “Inhibition” and the concentration for half-maximal inhibition (IC50) came to 381 ± 15 µM.

For `NCCCC[C@H](N)C(=O)O` [Lys], on MtSerB2 [2], the “% activation” value was 40% and the Activation factor result is given as “Activation”.

Sodium Vanadate: the “Imax (%) SerB2” value at MtSerB2 [1] is reported as 88%. Moreover, the “Imax (%) PSPD” value in test [4] is given as 93%.

Regarding `N[C@@H](CCC(=O)O)C(=O)O` [Glu], on MtSerB2 [2], the Activation factor result is “Inhibition” and the midpoint of inhibition, the IC50, lay at 363 ± 20 µM.

Consider `CN(C)CCCN1c2ccccc2Sc2ccc(Cl)cc21` [Chlorpromazine, Chlorpromazine Hydrochloride], for which, on MtSerB2 [1], the “Imax (%) SerB2” value is 70%, the “Inhibition of phosphatase activity” value was “inhibition at nanomolar concentrations” and the type of inhibition entry is on record as “non-competitive”. In addition, on MtSerB2 [1] (read-out: IC50 (µM) SerB2), the IC50 was determined as 0.92 ± 0.1 µM. Further, the “Imax (%) PSPD” value in test [4] came to 95%. Also, in test [4] (IC50 (µM) PSPD), the concentration for half-maximal inhibition (IC50) was ~6.25 µM and 6.25 µM.

As to `O=C(O)CN(CCN(CC(=O)O)CC(=O)O)CC(=O)O` [EDTA], the “Inhibition of phosphatase activity” value on MtSerB2 [1] is “decrease of enzyme activity”.
